Test results published in ChEMBL document CHEMBL3526005, “Pharmacokinetic and pharmacodynamic properties of cholinesterase inhibitors donepezil, tacrine, and galantamine in aged and young Lister hooded rats” (Drug Metab Dispos, 2011).
Calls of active or inactive are those of the source. The rule behind the calls is not given here.

Tests used:
in vivo [1] = details: Lister Hooded, rat, iv, 1 mg/kg
Rattus norvegicus [2] = species on record: Rattus norvegicus; details: in vivo, iv, 1 mg/kg, 1 h
in vivo [3] = details: Lister Hooded, rat, po, 3 mg/kg
[4] = Drug excretion in human urine at 2 mg, po single dose; details: in vivo
Rattus norvegicus [5] = species on record: Rattus norvegicus; details: in vivo, po, 3 mg/kg
[6] = Half life in human at 2 mg, po single dose; details: in vivo
in vivo [7] = details: Lister Hooded, rat, iv, 1 mg/kg; remark: listed apart in the source
[8] = Half life in 30 months-old Lister Hooded rat at 1 mg/kg, iv infusion for 1 hr; details: in vivo
Homo sapiens = assay: Volume of distribution in human at 2 mg, po single dose; details: in vivo
Rattus norvegicus [9] = assay: Inhibition of cholinesterase activity in 7 months-old Lister Hooded rat plasma at 3 mg/kg, po after 1 hr treatment; type: organism-based; parameters: dose 3 mg/kg
[10] = Clearance in human at 2 mg, po single dose; details: in vivo
[11] = Drug uptake in 30 months-old Lister Hooded rat assessed as corrected brain concentration at 3 mg/kg, po after 1 hr treatment; details: in vivo
[12] = Mean residence time in 7 months-old Lister Hooded rat at 1 mg/kg, iv infusion for 1 hr; details: in vivo
Rattus norvegicus [13] = species on record: Rattus norvegicus; details: in vivo, po, 3 mg/kg; remark: listed apart in the source
[14] = Mean residence time in 30 months-old Lister Hooded rat at 1 mg/kg, iv infusion for 1 hr; details: in vivo
[15] = Drug uptake in 7 months-old Lister Hooded rat blood at 3 mg/kg, po after 1 hr treatment; details: in vivo
[16] = Drug uptake in 30 months-old Lister Hooded rat blood at 3 mg/kg, po after 1 hr treatment; details: in vivo
[17] = Plasma protein binding in human at 2 mg, po single dose; details: in vivo
[18] = Half life in 7 months-old Lister Hooded rat at 1 mg/kg, iv infusion for 1 hr; details: in vivo
in vivo [19] = details: Lister Hooded, rat, po, 3 mg/kg; remark: listed apart in the source
[20] = Oral bioavailability in human at 2 mg single dose; details: in vivo
in vivo [21] = details: Lister Hooded, rat, po, 3 mg/kg; remark: listed apart in the source
[22] = target: Butyrylcholinesterase (Rattus norvegicus) (UniProt Q9JKC1); details: Lister Hooded, 3 mg/kg
Description: Inhibition of butyrylcholinesterase activity in 7 months-old Lister Hooded rat brain at 3 mg/kg, po after 1 hr treatment

[23] = Drug excretion in human feces at 2 mg, po single dose; details: in vivo
Rattus norvegicus [24] = species on record: Rattus norvegicus; details: in vivo, iv, 1 mg/kg, 1 h; remark: listed apart in the source
in vivo [25] = details: Lister Hooded, rat, po, 3 mg/kg; remark: listed apart in the source
[26] = Drug uptake in 7 months-old Lister Hooded rat assessed as corrected brain concentration at 3 mg/kg, po after 1 hr treatment; details: in vivo
in vivo [27] = details: Lister Hooded, rat, po, 3 mg/kg; remark: listed apart in the source
[28] = Volume of distribution in 7 months-old Lister Hooded rat at 1 mg/kg, iv infusion for 1 hr; details: in vivo
[29] = Volume of distribution in 30 months-old Lister Hooded rat at 1 mg/kg, iv infusion for 1 hr; details: in vivo
[30] = Tmax in human at 2 mg, po single dose; details: in vivo
in vivo [31] = details: Lister Hooded, rat, brain, po, 3 mg/kg
Description: Ratio of brain to blood in 30 months-old Lister Hooded rat blood at 3 mg/kg, po after 1 hr treatment

in vivo [32] = details: Lister Hooded, rat, po, 3 mg/kg; remark: listed apart in the source
[33] = target: Butyrylcholinesterase (Rattus norvegicus) (UniProt Q9JKC1); details: Lister Hooded, Plasma, 3 mg/kg
Description: Inhibition of butyrylcholinesterase activity in 7 months-old Lister Hooded rat plasma at 3 mg/kg, po after 1 hr treatment

in vivo [34] = details: Lister Hooded, rat, iv, 1 mg/kg; remark: listed apart in the source
[35] = Ratio of brain to blood in 7 months-old Lister Hooded rat blood at 3 mg/kg, po after 1 hr treatment
in vivo [36] = details: Lister Hooded, rat, iv, 1 mg/kg; remark: listed apart in the source
Rattus norvegicus [37] = species on record: Rattus norvegicus; details: in vivo, po, 3 mg/kg; remark: listed apart in the source
Rattus norvegicus [38] = species on record: Rattus norvegicus; details: in vivo, iv, 1 mg/kg, 1 h; remark: listed apart in the source
Rattus norvegicus [39] = species on record: Rattus norvegicus; details: in vivo, iv, 1 mg/kg, 1 h; remark: listed apart in the source
[40] = Drug excretion in human urine assessed as unchanged drug level at 2 mg, po single dose; type: ADME, organism-based; details: read-out: Drug excretion
Rattus norvegicus [41] = species on record: Rattus norvegicus; details: in vivo, po, 3 mg/kg; remark: listed apart in the source
Rattus norvegicus [42] = assay: Inhibition of cholinesterase activity in 30 months-old Lister Hooded rat plasma assessed as percent enhancement of inhibition at 3 mg/kg, po after 1 hr treatment; type: organism-based; parameters: dose 3 mg/kg; scale not given: the % may be the effect or the level left

Butyrylcholinesterase (Rattus norvegicus), sequence (Q9JKC1 as listed by the source): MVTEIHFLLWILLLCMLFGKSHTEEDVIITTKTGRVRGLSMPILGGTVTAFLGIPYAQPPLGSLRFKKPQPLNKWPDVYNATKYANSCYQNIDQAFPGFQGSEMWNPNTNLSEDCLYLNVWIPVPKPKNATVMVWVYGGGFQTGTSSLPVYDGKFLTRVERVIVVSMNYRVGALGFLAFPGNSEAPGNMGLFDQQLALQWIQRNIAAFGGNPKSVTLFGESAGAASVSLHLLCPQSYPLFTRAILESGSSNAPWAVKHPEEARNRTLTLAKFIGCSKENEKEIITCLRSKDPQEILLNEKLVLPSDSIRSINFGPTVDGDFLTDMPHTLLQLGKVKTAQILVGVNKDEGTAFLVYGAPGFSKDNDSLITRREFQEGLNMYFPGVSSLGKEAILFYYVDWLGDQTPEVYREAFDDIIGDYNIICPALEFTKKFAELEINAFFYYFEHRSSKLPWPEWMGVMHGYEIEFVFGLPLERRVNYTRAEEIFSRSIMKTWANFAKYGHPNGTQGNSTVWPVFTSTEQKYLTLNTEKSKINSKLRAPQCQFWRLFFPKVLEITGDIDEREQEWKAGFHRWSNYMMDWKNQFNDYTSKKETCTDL

## Cl.Nc1c2c(nc3ccccc13)CCCC2 [TACRINE HYDROCHLORIDE]
In vivo [1]; in vivo
  clearance at 1 h: 77 mL/min/kg
Rattus norvegicus [2]
  AUCt/dose: 10.2 kg·min/L
In vivo [3]
  Cmax: 310 nM
[4]
  Drug excretion: 57%
Rattus norvegicus [5]
  AUCt: 0.89 µM·h
[6]
  half-life: 2 h
In vivo [7]; in vivo
  clearance at 1 h: 93 mL/min/kg
[8]
  half-life at 1 h: 1.1 h
Homo sapiens
  Vd: 5.02 L/kg
Rattus norvegicus [9]
  inhibition: 92.6%
[10]
  CL/F: 40.3 mL/min/kg
[11]
  concentration at 1 h: 1720 nM
[12]
  MRT at 1 h: 0.9 h
Rattus norvegicus [13]
  AUCt: 0.7 µM·h
[14]
  MRT at 1 h: 1.1 h
[15]
  concentration at 1 h: 110 nM
[16]
  concentration at 1 h: 190 nM
[17]
  fraction unbound: 0.45
[18]
  half-life at 1 h: 0.9 h
In vivo [19]
  bioavailability: 29%
[20]
  bioavailability: 17%
In vivo [21]
  Cmax: 360 nM
[22]
  inhibition: Active
[23]
  Drug excretion: 23%
Rattus norvegicus [24]
  AUCt/dose: 12.4 kg·min/L
In vivo [25]
  bioavailability: 27%
[26]
  concentration at 1 h: 1240 nM
In vivo [27]
  Tmax: 0.5 h
[28]
  Vd at 1 h: 5.1 L/kg
[29]
  Vd at 1 h: 5.2 L/kg
[30]
  Tmax: 1 h
In vivo [31]
  Kp at 1 h: 9.5
In vivo [32]
  Tmax: 0.5 h
[33]
  inhibition: Active
In vivo [34]
  Cmax at 1 h: 700 nM
[35]
  Kp at 1 h: 11
In vivo [36]
  Cmax at 1 h: 740 nM

## Br.COc1ccc2c3c1O[C@H]1C[C@@H](O)C=C[C@@]31CCN(C)C2 [GALANTAMINE HYDROBROMIDE]
In vivo [1]; blood
  clearance at 1 h: 34 mL/min/kg
Rattus norvegicus [2]
  AUCt/dose: 20.4 kg·min/L
In vivo [3]
  Cmax: 1330 nM
Rattus norvegicus [5]
  AUCt: 3.45 µM·h
Rattus norvegicus [37]
  AUC/dose: 17.4 kg·min/L
[6]
  half-life: 5 h
In vivo [7]; blood
  clearance at 1 h: 41 mL/min/kg
[8]
  half-life at 1 h: 1.2 h
Homo sapiens
  Vd: 2.9 L/kg
Rattus norvegicus [9]
  inhibition: 92.6%
[10]
  CL/F: 5.67 mL/min/kg
[11]
  concentration at 1 h: 1140 nM
[12]
  MRT at 1 h: 2 h
Rattus norvegicus [13]
  AUCt: 2.89 µM·h
Rattus norvegicus [38]
  AUC/dose: 29.9 kg·min/L
[14]
  MRT at 1 h: 1.5 h
[15]
  concentration at 1 h: 420 nM
Rattus norvegicus [39]
  AUC/dose: 22.7 kg·min/L
[16]
  concentration at 1 h: 580 nM
[18]
  half-life at 1 h: 1.9 h
In vivo [19]
  bioavailability: 67%
[20]
  bioavailability: 85%
In vivo [21]
  Cmax: 890 nM
Rattus norvegicus [24]
  AUCt/dose: 28.9 kg·min/L
In vivo [25]
  bioavailability: 83%
[26]
  concentration at 1 h: 730 nM
In vivo [27]
  Tmax: 0.5 h
[28]
  Vd at 1 h: 5 L/kg
[29]
  Vd at 1 h: 2.9 L/kg
[30]
  Tmax: 1 h
In vivo [31]
  Kp at 1 h: 2
In vivo [32]
  Tmax: 0.5 h
In vivo [34]
  Cmax at 1 h: 590 nM
[40]
  dose excreted: 32%
Rattus norvegicus [41]
  AUC/dose: 19.3 kg·min/L
[35]
  Kp at 1 h: 1.7
In vivo [36]
  Cmax at 1 h: 910 nM

## COc1cc2c(cc1OC)C(=O)C(CC1CCN(Cc3ccccc3)CC1)C2.Cl (configuration not stated) [DONEPEZIL HYDROCHLORIDE]
In vivo [1]; blood
  clearance at 1 h: 43 mL/min/kg
Rattus norvegicus [2]
  AUCt/dose: 15.9 kg·min/L
In vivo [3]
  Cmax: 200 nM
Rattus norvegicus [5]
  AUCt: 0.91 µM·h
Rattus norvegicus [42]
  Activity: 18%
Rattus norvegicus [37]
  AUC/dose: 5.8 kg·min/L
[6]
  half-life: 70 h
In vivo [7]; blood
  clearance at 1 h: 52 mL/min/kg
[8]
  half-life at 1 h: 3.6 h
Homo sapiens
  Vd: 12 L/kg
Rattus norvegicus [9]
  inhibition: 92.6%
[10]
  CL/F: 2.17 mL/min/kg
[12]
  MRT at 1 h: 3 h
Rattus norvegicus [13]
  AUCt: 0.76 µM·h
Rattus norvegicus [38]
  AUC/dose: 23.7 kg·min/L
[14]
  MRT at 1 h: 4.6 h
[18]
  half-life at 1 h: 2.5 h
In vivo [19]
  bioavailability: 43%
[20]
  bioavailability: 100%
In vivo [21]
  Cmax: 180 nM
Rattus norvegicus [24]
  AUCt/dose: 16.4 kg·min/L
In vivo [25]
  bioavailability: 36%
In vivo [27]
  Tmax: 1 h
[28]
  Vd at 1 h: 9.2 L/kg
[29]
  Vd at 1 h: 11.8 L/kg
[30]
  Tmax: 3 h
In vivo [31]
  Kp at 1 h: 5.3
In vivo [32]
  Tmax: 1 h
In vivo [34]
  Cmax at 1 h: 320 nM
[40]
  dose excreted: 17%
Rattus norvegicus [41]
  AUC/dose: 6.9 kg·min/L
[35]
  Kp at 1 h: 4.4
In vivo [36]
  Cmax at 1 h: 300 nM
